Data: patent US6160004A, “C-10 carbon-substituted artemisinin-like trioxane compounds having antimalarial, antiproliferative and antitumor activities” (priority 1998, dated 2000)
Like-named read-outs stand apart in the source and are kept apart here.

Assays:
NCI-H460 = experiment: cells; type: cell-based; conditions: Homo sapiens, NCI-H460, non-small cell lung cancer, 48 h
MDA-N = experiment: NCI 60 cell line panel screening assay (SRB), MDA-N; type: cell-based; conditions: Homo sapiens, breast cancer, 48 h, read-out: Log10 GI50 (converted)
UACC-62 = experiment: cells; type: cell-based; conditions: Homo sapiens, UACC-62, melanoma, 48 h
TK-10 = experiment: cells; type: cell-based; conditions: Homo sapiens, TK-10, renal cancer, 48 h; for IC (TGI): read-out: Log10 TGI
ACHN = experiment: NCI 60 cell line panel screening assay (SRB), ACHN; type: cell-based; conditions: Homo sapiens, renal cancer, 48 h, read-out: Log10 GI50 (converted)
HCT-116 = experiment: cells; type: cell-based
SW-620 = experiment: NCI 60 cell line panel screening assay (SRB), SW-620; type: cell-based; conditions: Homo sapiens; for GI50: read-out: Log10 GI50 (converted)
MOLT-4 = experiment: cells; conditions: Homo sapiens; for GI50: read-out: Log10 GI50 (converted); for IC50: MOLT-4, read-out: concentration for primary growth inhibition (PG +50)
EKVX = experiment: NCI 60 cell line panel screening assay (SRB), EKVX; type: cell-based; conditions: Homo sapiens, non-small cell lung cancer, 48 h, read-out: Log10 GI50 (converted)
NCI-H226 = experiment: cells; type: cell-based; conditions: Homo sapiens; NCI-H226, non-small cell lung cancer, 48 h; read-out: Log10 GI50 (converted)
T-47D = experiment: NCI 60 cell line panel screening assay (SRB), T-47D; conditions: Homo sapiens, T47D, 48 h
SNB-19 = experiment: cells; type: cell-based; conditions: Homo sapiens, SNB-19, CNS cancer, 48 h
NCI-H322M = experiment: cells; conditions: Homo sapiens, 48 h
OVCAR-4 = experiment: cells; type: cell-based; conditions: Homo sapiens
SF-268 = experiment: cells; type: cell-based; conditions: Homo sapiens; SF-268, CNS cancer, 48 h; read-out: Log10 LC50 (converted)
SK-OV-3 = experiment: cells; type: cell-based; conditions: Homo sapiens; SK-OV-3, ovarian cancer, 48 h; read-out: Log10 TGI (converted)
MDA-MB435 = experiment: NCI 60 cell line panel screening assay (SRB), MDA-MB435; type: cell-based; conditions: Homo sapiens, MDA-MB-435, 48 h
HL-60(TB) = experiment: cells; type: cell-based; conditions: Homo sapiens, HL-60, 48 h
NCI-H522 = experiment: cells; type: cell-based; conditions: Homo sapiens, NCI-H522, 48 h
LOX IMVI = experiment: cells; type: cell-based; conditions: Homo sapiens, 48 h, read-out: Log10 GI50 (converted)
[1] = system: chloroquine-sensitive P. falciparum (NF54); experiment: In vitro antimalarial activity ([3H]hypoxanthine incorporation); type: cell-based; conditions: Plasmodium falciparum; chloroquine-sensitive P. falciparum NF54, in vitro
A549/ATCC = experiment: NCI 60 cell line panel screening assay (SRB), A549/ATCC; type: cell-based; conditions: Homo sapiens, non-small cell lung cancer, 48 h, read-out: Log10 GI50 (converted)
UO-31 = experiment: NCI 60 cell line panel screening assay (SRB), UO-31; type: cell-based; conditions: Homo sapiens, UO-31, renal cancer, 48 h
[2] = read-out: Log10 GI50 (converted)
[3] = read-out: Log10 LC50 (converted)

Molecule `C[C@@H]1CC[C@H]2[C@@H](C)C(=O)O[C@@H]3O[C@@]4(C)CC[C@@H]1[C@]32OO4` [Artemisinin] has a GI50 (NCI-H460; [2]) greater than 100 µM, an IC (TGI) (NCI-H460; read-out: Log10 TGI (converted)) greater than 100 µM and a GI50 (MDA-N) greater than 100 µM. The GI50 (UACC-62; [2]) was greater than 100 µM, the IC (TGI) (UACC-62; read-out: Log10 TGI) was greater than 100 µM and the GI50 (TK-10; [2]) was greater than 100 µM. The IC (TGI) (TK-10) was greater than 100 µM, the GI50 (ACHN) was greater than 100 µM and the GI50 (HCT-116; Homo sapiens, HCT-116, 48 h; read-out: Log10 GI50 (converted)) was 100 µM. It also gave a GI50 (SW-620; SW-620, colon cancer, 48 h) greater than 100 µM, a GI50 (MOLT-4; MOLT-4, 48 h) of 18.6 µM and an IC (TGI) (MOLT-4; MOLT-4, 48 h, read-out: Log10 TGI) of 100 µM. The IC50 (MOLT-4) was greater than 100 µM, the GI50 (EKVX) was greater than 100 µM and the GI50 (NCI-H226) was greater than 100 µM. For the same molecule, the IC (TGI) (T-47D; read-out: Log10 TGI) was greater than 100 µM, the GI50 (SNB-19; [2]) was greater than 100 µM and the IC (TGI) (SNB-19; read-out: Log10 TGI) was greater than 100 µM.
`CC1CCC2C(C)C(CC(=O)c3ccc(C(=O)CC4OC5OC6(C)CCC7C(C)CCC(C4C)C57OO6)cc3)OC3OC4(C)CCC1C32OO4` (stereo not drawn) [Dimer 38] gave a GI50 (NCI-H322M; [2]) of 3.8 µM, a CC50 (NCI-H322M; [3]) greater than 100 µM and an IC (TGI) (NCI-H322M; read-out: Log10 TGI) greater than 100 µM. The IC (TGI) (OVCAR-4; OVCAR-4, 48 h, read-out: Log10 TGI) was greater than 100 µM, the CC50 (OVCAR-4; OVCAR-4, ovarian cancer, 48 h, read-out: Log10 LC50 (converted)) was greater than 100 µM and the CC50 (TK-10; [3]) was greater than 100 µM. The IC (TGI) (TK-10) was greater than 100 µM, the CC50 (SF-268) was greater than 100 µM and the IC (TGI) (SK-OV-3) was 21.4 µM. It also gave a GI50 (MDA-MB435; [2]) of less than 0.01 µM, a CC50 (MDA-MB435; [3]) greater than 100 µM and a GI50 (HCT-116; Homo sapiens, HCT-116, 48 h, read-out: Log10 GI50 (converted)) of less than 0.01 µM. It also gave a GI50 (SW-620; SW-620, 48 h) of less than 0.01 µM, a CC50 (SW-620; SW-620, colon cancer, 48 h, read-out: Log10 LC50 (converted)) greater than 100 µM and a GI50 (MOLT-4; MOLT-4, 48 h) of less than 0.01 µM. The CC50 (MOLT-4; MOLT-4, 48 h, read-out: Log10 LC50 (converted)) was greater than 100 µM, the CC50 (MOLT-4; MOLT-4, read-out: concentration for cytotoxicity (PG -50)) was greater than 100 µM and the IC50 (MOLT-4) was less than 0.1 µM. The GI50 (HL-60(TB); [2]) was less than 0.01 µM, the CC50 (HL-60(TB); [3]) was greater than 100 µM and the GI50 (T-47D; [2]) was less than 0.01 µM. For the same molecule, the CC50 (T-47D; [3]) was greater than 100 µM, the GI50 (NCI-H522; [2]) was less than 0.01 µM and the CC50 (NCI-H522; [3]) was greater than 100 µM. The GI50 (LOX IMVI) was less than 0.01 µM, the IC50 [1] was 0.0019 µM and the CC50 (SNB-19; [3]) was greater than 100 µM. The GI50 (A549/ATCC) was less than 0.01 µM, the GI50 (UO-31; [2]) was 0.024 µM and the CC50 (UO-31; [3]) was greater than 100 µM.
